Data from PubChem BioAssay AID1963872 (Molecular Pharmacology Branch, DTP, NCI, 2024).

Test system: KRAS patient-derived spheroids with HUVEC/MSC, viability
Assay: Anticancer human tumor 519858-162-T-J1-PDC patient-derived colon adenocarcinoma cell line growth inhibition [KRAS2]
Details: for viability, T/C: stronger effect = lower value
How it was run: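 Combination screen of spheroid viability in tumor-cell co-cultures with endothelial (HUVEC) and mesenchymal stem cell stroma. Each agent was tested in half-log dilutions, topping at clinical Cmax or at 10 microM without a known Cmax.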

[1] = curve of first compound, second compound 0.1 µM
[2] = curve of first compound, second compound 0.316 µM
[3] = curve of first compound, second compound 1 µM
[4] = curve of first compound, second compound 3.16 µM
[5] = second compound 0.1 µM, first compound 0.0316 µM
[6] = second compound 0.1 µM, first compound 0.1 µM
[7] = second compound 0.1 µM, first compound 0.316 µM
[8] = second compound 0.1 µM, first compound 1 µM
[9] = second compound 0.1 µM, first compound 3.16 µM
[10] = second compound 0.316 µM, first compound 0.0316 µM
[11] = second compound 0.316 µM, first compound 0.1 µM
[12] = second compound 0.316 µM, first compound 0.316 µM
[13] = second compound 0.316 µM, first compound 1 µM
[14] = second compound 0.316 µM, first compound 3.16 µM
[15] = second compound 1 µM, first compound 0.0316 µM
[16] = second compound 1 µM, first compound 0.1 µM
[17] = second compound 1 µM, first compound 0.316 µM
[18] = second compound 1 µM, first compound 1 µM
[19] = second compound 1 µM, first compound 3.16 µM
[20] = second compound 3.16 µM, first compound 0.0316 µM
[21] = second compound 3.16 µM, first compound 0.1 µM
[22] = second compound 3.16 µM, first compound 0.316 µM
[23] = second compound 3.16 µM, first compound 1 µM
[24] = second compound 3.16 µM, first compound 3.16 µM
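Note: compound exposure lasted seven days before readout.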
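Throughout, for viability, T/C: 100% = DMSO vehicle control viability.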

| SMILES | IC50 [1] | IC50 [2] | IC50 [3] | IC50 [4] | viability, T/C [5] | viability, T/C [6] | viability, T/C [7] | viability, T/C [8] | viability, T/C [9] | viability, T/C [10] | viability, T/C [11] | viability, T/C [12] | viability, T/C [13] | viability, T/C [14] | viability, T/C [15] | viability, T/C [16] | viability, T/C [17] | viability, T/C [18] | viability, T/C [19] | viability, T/C [20] | further results |
| --- | --- | --- | --- | --- | --- | --- | --- | --- | --- | --- | --- | --- | --- | --- | --- | --- | --- | --- | --- | --- | --- |
| CC1COCCN1c1cc(-c2ccnn2C)c2ccnc(-c3ccn[nH]3)c2n1 (centres undefined) + COc1cc2nc(C)nc(NC(C)c3cc(N)cc(C(F)(F)F)c3)c2cc1OC1CCOC1 | 1400 nM | 1220 nM | 672 nM | 319 nM | 69.2% | 76.3% | 57.6% | 57.3% | 40% | 62.8% | 68.7% | 61.5% | 56.2% | 28.2% | 67.6% | 56.8% | 53.7% | 51.3% | 30% | 59% | IC50 (curve of first compound, second compound 10 µM): 138 nM; viability, T/C (second compound 0.1 µM, first compound 0.01 µM): 80.5%; viability, T/C (second compound 0.316 µM, first compound 0.01 µM): 74.1%; viability, T/C (second compound 1 µM, first compound 0.01 µM): 65.9%; viability, T/C (second compound 3.16 µM, first compound 0.01 µM): 65.3%; viability, T/C [21]: 53.9%; viability, T/C [22]: 50.1%; viability, T/C [23]: 28.4%; viability, T/C [24]: 37.6%; viability, T/C (second compound 10 µM, first compound 0.01 µM): 92.7%; viability, T/C (second compound 10 µM, first compound 0.0316 µM): 75.5%; viability, T/C (second compound 10 µM, first compound 0.1 µM): 61.8%; viability, T/C (second compound 10 µM, first compound 0.316 µM): 28.2%; viability, T/C (second compound 10 µM, first compound 1 µM): 15%; viability, T/C (second compound 10 µM, first compound 3.16 µM): 19.9% |
| COc1cc(Nc2ncc3c(n2)-c2ccc(Cl)cc2C(c2c(F)cccc2OC)=NC3)ccc1C(=O)O |  |  |  |  |  |  |  |  |  |  |  |  |  |  |  |  |  |  |  |  | viability, T/C (compound 0.1 µM): 74.8% [middle of 5 runs]; IC50 (curve of compound): > 10000 nM |
| Cn1nccc1Nc1nccc(-c2cc3c(s2)C(C)(C)N(CCN2CCOCC2)C3=O)n1 + C=CC(=O)N1CCN(c2nc(OCC3CCCN3C)nc3c2CCN(c2cccc4cccc(C)c24)C3)CC1CC#N | 3030 nM | 1690 nM | 693 nM | < 31.6 nM | 76.3% | 87.3% | 94.7% | 60.1% | 53.7% | 77.7% | 74.7% | 72% | 53.3% | 44.8% | 71.6% | 57.1% | 54% | 53% | 36.7% | 47.6% | IC50 (curve of first compound, second compound 0.0316 µM): 4030 nM; viability, T/C (second compound 0.0316 µM, first compound 0.0316 µM): 78.1%; viability, T/C (second compound 0.0316 µM, first compound 0.1 µM): 75.3%; viability, T/C (second compound 0.0316 µM, first compound 0.316 µM): 82.8%; viability, T/C (second compound 0.0316 µM, first compound 1 µM): 68.4%; viability, T/C (second compound 0.0316 µM, first compound 3.16 µM): 56.6%; viability, T/C (second compound 0.0316 µM, first compound 10 µM): 28.1%; viability, T/C (second compound 0.1 µM, first compound 10 µM): 25.3%; viability, T/C (second compound 0.316 µM, first compound 10 µM): 32.8%; viability, T/C (second compound 1 µM, first compound 10 µM): 27.1%; viability, T/C [21]: 54.6%; viability, T/C [22]: 39.8%; viability, T/C [23]: 30%; viability, T/C [24]: 41.5%; viability, T/C (second compound 3.16 µM, first compound 10 µM): 17.6% |
| CCNC(=O)CC1N=C(c2ccc(Cl)cc2)c2cc(OC)ccc2-n2c(C)nnc21 (centres undefined) |  |  |  |  |  |  |  |  |  |  |  |  |  |  |  |  |  |  |  |  | viability, T/C (compound 1 µM): 52.7% [middle of 5 runs]; IC50 (curve of compound): 1.08 µM [middle of 4 runs] |
